Test results from patent US4760072A, “Solid nedocromil sodium, useful for the removal of obstructed air pathways” (Fisons, plc, priority 1984, dated 1988).
“And” between values parts separate entries of the source, which are not always exact repeats. Identical values can stand only once. Counter-ions that a name gives are not always drawn.

Legend:
[1] = Aerosol dispersion with single stage liquid impinger; type: physicochemical
Excerpt: The single stage liquid impinger samples the whole cloud delivered from the aerosol and separates it into two fractions by inertial impaction. The fraction of smaller particle size is less than 10 microns in aerodynamic diameter and represents material which is likely to penetrate into the deeper regions of the human airways.
In four laboratory precipitations using this method particles of mass mean diameter 2.5, 2.5, 2.8 and 2.8 microns were produced, and these gave aerosol dispersions of 26% and 23% from a 50 microliter valve using the formulation described in Example 1. The dispersion was measured with a single stage liquid impinger.

[2] = Particle size analysis by Joyce-Loebl disc centrifuge; type: physicochemical; settings: four laboratory precipitations; Apex milled and micronised in a fluid energy mill
Procedure: By mass median diameter we mean the diameter such that half the particulate mass is in particles of lesser diameter and half in particles of greater diameter. The mass median diameter is essentially a Stokes diameter and may be determined using a Joyce Loebl sedimentation disc centrifuge either in a two layer or line start photometric mode (Bagness J and Ottaway A. Proc. Soc. Analyt. Chem. Part 4, Vol 9, 1972 pages 83-86).
Twenty grams of nedocromil sodium were mixed with 60 ml of de-ionised water and 180 ml isopropanol in a 700 ml reaction flask. The mixture was agitated with an anchor-type stirrer at 120 rpm, and heated to its boiling point at around 80° C. The flask was fitted with a water-cooled condenser to prevent escape of isopropanol vapour. The resulting solution was refluxed for about 10 minutes to ensure complete dissolution. The hot solution of nedocromil sodium was then cooled to 75° C. and then added in about 20 seconds to 190 ml of isopropanol at 8° C. The resulting slurry was stirred with the anchor agitator and cooled to 25° C. in the reaction flask. The time taken for cooling was about 45 minutes and throughout this time the crystal slurry remained as the pale yellow, free flowing form. The slurry was then filtered on a Buchner filter using terylene filter cloth, washed with about 50 ml isopropanol and dried in an oven at 60° C. to constant weight. […]

[3] = Bound water / thermogravimetric analysis; type: physicochemical
Procedure: Form A material containing bound water can best be identified by thermogravimetric analysis in which the temperature of the material to be tested is increased at a constant rate and the change in weight of the sample is recorded against time.
(a) Two samples of about 5 mg of nedocromil sodium were submitted to thermogravimetric analysis at a scan rate of 20° C. per minute.

[4] = Solid form produced by precipitation process; type: physicochemical
Procedure: Twenty grams of the nedocromil sodium were dissolved in 60 ml of deionised water and 180 ml of isopropyl alcohol by heating to reflux at 81° C. To this solution was then added a further 190 ml of isopropanol (temperature 25° C.) with agitation. The crystal slurry was then cooled in air, maintaining agitation, until a temperature of 25° C. had been reached. The crystals were then filtered on a Buchner filter, using a terylene filter cloth. The filter cake was washed with a displacement volume of isopropanol and filtered further. The cake was then dried in an oven, at atmospheric pressure and 60° C., to constant weight.
1 Kg of nedocromil sodium is dissolved in three liters of deionised water and six liters of isopropanol at 30° C., and the mixture is then heated to reflux (at 81° C.) with agitation to ensure dissolution. The resulting solution is cooled slightly to about 75° C. and then added to another 12.5 liters of isopropanol at a temperature of about -8° C., as quickly as possible. This precipitates out most of the nedocromil sodium and produces a slurry. This slurry is then stirred and cooled to 25° C. over about an hour, to precipitate out further material. The temperature of the slurry is kept at 25° C. and the slurry filtered as soon as possible to remove the mother liquor, and then dried to constant weight at 60° C. […]

[5] = Viscosity of precipitated crystal slurry; type: physicochemical; settings: 140 ml isopropanol at 15° C. added; cooled to 22° C. in 30 minutes
Procedure: Twenty grams of crude nedocromil sodium were mixed with 60 ml of deionised water and 180 ml of isopropyl alcohol in a 700 ml reaction flask. The mixture was agitated with an anchor-type agitator at 120 rpm and heated to boiling point at about 80° C. The solution was refluxed for 10 minutes and then cooled to 75° C. To it was then added a further 140 ml isopropanol at 15° C. […] The resulting slurry was then agitated as in Example 4 and cooled in an ice/salt/isopropanol bath to 22° C. in 30 minutes. […] This slurry was filtered, washed and dried as in Example 4.

[6] = Powder X-ray diffraction, crystallinity; type: physicochemical
Excerpt: These peaks indicate that the material is crystalline.
In addition to the form A material there is a less desired form B which is of darker yellow colour, i.e. gives a yellow reading of 2.0 or more at 10% w/w total water using a Lovibond tintometer.

[7] = Physical stability of solid form B; type: physicochemical
[8] = 20° C.; cited from earlier work
[9] = Air classification of ground nedocromil sodium; type: physicochemical
Excerpt: It is further known to be desirable to make inhalation pharmaceuticals in the form of fine particles. These fine particles are conventionally made by grinding or milling larger sized particles of the pharmaceutical. Generally grinding and milling machines are extremely efficient and reduce the particle size of the material as far as they are capable in a single pass. Indeed the mass median diameter of product material can increase after a second pass through the grinder because some of the finest particles are lost to the system. We have also attempted to produce a material of very fine particle size by air classification of ground nedocromil sodium.

## CCCc1c2oc(C(=O)O)cc(=O)c2cc2c(=O)cc(C(=O)O)n(CC)c12 [Example 4]
[1]; 50 microliter valve, formulation described in Example 1
  aerosol dispersion: 26% and 23%
[2]
  mass mean diameter: 2.5 microns and 2.8 microns

## CCCc1c2oc(C(=O)O)cc(=O)c2cc2c(=O)cc(C(=O)O)n(CC)c12 [Example 6]
[3]
  bound water (in words): no tightly bound water
[4]
  form of nedocromil sodium produced: form B
[5]
  viscosity of slurry: about 20,000 centipoise

## CCCc1c2oc(C(=O)O)cc(=O)c2cc2c(=O)cc(C(=O)O)n(CC)c12 [Form A]
[3]
  thermogravimetric trace (in words): discontinuous
[3]; atmospheric pressure
  removability of bound water on intensive drying: cannot readily be removed by intensive drying at atmospheric pressure without destroying the compound
[6]
  crystallinity by powder X-ray diffraction: crystalline

## CCCc1c2oc(C(=O)O)cc(=O)c2cc2c(=O)cc(C(=O)O)n(CC)c12 [Form B]
[7]
  coalescence on change to form A: can coalesce to produce hard and intractable lumps of particle size larger than the original material
  spontaneous change to form A: can, but does not necessarily,change spontaneously (sometimes after a very considerable time) to form A
[3]
  bound water (in words): no bound water
  thermogravimetric trace (in words): essentially continuous trace
[6]
  crystallinity by powder X-ray diffraction: amorphous

## FC(F)(Cl)Cl [Propellant 12, dichlorodifluoromethane]
[8]
  vapour pressure (absolute): about 570 k Pa

## FC(F)(Cl)C(F)(F)Cl [Propellant 114, 1,2-dichlorotetrafluoroethane]
[8]
  vapour pressure (absolute): about 180 k Pa

## CCCc1c2oc(C(=O)O)cc(=O)c2cc2c(=O)cc(C(=O)O)n(CC)c12 [nedocromil sodium, disodium salt of 9-ethyl-6,9-dihydro-4,6-dioxo-10-propyl-4H-pyrano[3,2-g]-quinoline-2,8-dicarboxylic acid]
[9]
  mean particle size after air classification: larger mean particle size than the starting material
[1]; mass median diameter less than 4 microns vs exactly analogous units of larger mass median diameter
  dispersion of aerosol units, relative to larger mass median diameter: greater dispersion than exactly analogous units containing nedocromil sodium of larger mass median diameter
